Columns and labels:
[1] = Pharmacokinetic study of indacaterol in rat lung tissues (MISPE, UPLC); assay type: in vivo, male Wistar rats; details: rat lungs
Experimental: AUC was calculated using the trapezoidal rule where, AUC 0−t was determined by summing the areas of consecutive trapezoids formed by plotting drug concentration versus time[36]. The elimination rate constant was estimated from the least-squares regression slope of the terminal lung concentrations by multiplying the negative slope by 2.303[36]. The AUC 0−inf was calculated using Eq. (9)[36]:9 [drawing 9]
where, Ct is the last lung concentration measured. The t1/2 was calculated using Eq. (10)[36]:10 [drawing 10]
The rats were divided into eight sampling time points (n = 3/sampling time point) representing different time intervals (0.0, 5.0, 15.0, 30.0, 60.0, 180.0, 360.0 and 1440.0 min) for the pharmacokinetic study. Except for the zero-time sampling point; where rats were not administered the drug and were used for bioanalytical validation; each rat in each sampling time point was administered one inhalation capsule containing 150 µg of indacaterol using a powder administration device for animals (Aptar Pharma, Le Prieure, Le Neubourg, France). The powder administration device was designed to deliver a uniform dose of dry powder inhalers into the lungs of rats.
At each time interval, three rats were subjected to euthanasia in the euthanasia chamber using carbon dioxide gas inhalation, after being unconscious, the rats were subjected to decapitation and their lungs were separated and cut into small slices to facilitate homogenization. Then, the lung tissues were homogenized for 10 min using a homogenizer placed in an ice jacket with 2.0 mL of PBS. The homogenized samples were then centrifuged, and the supernatant was separated and loaded into MISPE cartridge following the optimized MISPE steps. The drug was eluted in 1.0 mL of the eluent. Then, 10.0 µL of salbutamol stock solution was added to the eluent as an IS, and the eluent was then injected into UPLC. The same procedure was repeated at each time interval. Dead animal bodies were kept in biohazard bags in -20^ºC freezer and finally incinerated by specialized waste disposal companies.

[2] = Stability of lung samples spiked with indacaterol standard; assay type: physicochemical, rat; details: for Short-term stability, % deviation from fresh sample: room temperature 2 h, lung sample; for Long-term stability, % deviation from fresh sample: -80 °C 3 weeks; for Auto-sampler stability, % deviation from fresh sample: autosampler 30°C 6 h; for Freeze and thaw stability, % deviation from fresh sample: three cycles each of 24 h
Experimental: Regarding the preparation of lung tissue samples, three non-medicated male rats were sacrificed by decapitation and their whole lungs were harvested. The lungs were cut into small slices and mixed with 2.0 mL of PBS, homogenized in an ice jacket for 10.0 min. Subsequently, 1800.0 µL of the homogenate was collected and spiked with 200.0 µL of indacaterol solution with concentrations of 1.0, 3.0, 350.0, and 700.0 µg mL^− 1 separately, to achieve the concentration of the LLOQ and QCs per 1.0 mL of the lung homogenate. Samples were centrifuged at 3000 rpm for 10 min and 1.0 mL of the supernatant was passed through the MISPE cartridge according to the extraction protocol outlined in section "Preparation and optimization of MISPE". Finally, 10.0 µL of salbutamol stock standard solution was added to the eluent as IS, and the samples were injected into the UPLC for analysis.
Samples stabilities were assessed by injecting LLOQ and QCs six times and compared to freshly prepared samples using the following stability conditions:
Samples were left at room temperature for a time exceeding that required for sample preparation (2 h).
Samples were left in autosampler (30°C) for 6 h; expected time of samples storage in autosampler before injection. Then, samples were injected.
Samples were subjected to three cycles of freeze and thaw each of 24 h and the samples were kept under the same conditions as during the analysis.
Samples were stored at -80^ºC over a period exceeding that required for the whole experiment (3 weeks).
The results of all stability conditions were evaluated using Eq. (2). The deviation should not exceed ± 15.0%.2 [drawing 2]

[3] = Solubility of indacaterol in solvents (porogen and washing solvent choice); assay type: physicochemical
[4] = cited from earlier work
[5] = design: method as in PMID 24295085; details: human lung and pulmonary microsomes; cited from earlier work
[6] = design: method as in PMID 19819331; details: cited from earlier work
[7] = male, Wistar, lung, inhaled or intranasal, 150 ug, single inhaled capsule 150 µg, mean ± SD

CCc1cc2c(cc1CC)CC(NC[C@H](O)c1ccc(O)c3[nH]c(=O)ccc13)C2 [indacaterol, 5-[(1R)-2-(5,6-diethyl-indan-2-ylamino)-1-hydroxy-ethyl]−8-hydroxy-1H-quinolin-2-one]
Cmax ([1]; male, Wistar, lung, inhaled or intranasal, 150 ug, single inhaled Onbrez Breezhaler capsule 150 µg indacaterol, n = 3 per sampling time point, mean ± SD): 51 ± 2.81 µg/mL | AUC(0-inf) [1, 7]: 542 ± 5.25 µg·h/mL | Tmax [1, 7]: 4.98 ± 0.06 min | half-life ([1]; male, Wistar, lung, inhaled or intranasal, 150 ug, single inhaled capsule 150 µg, mean ± SD, read-out: t1/2 (0–24) (converted)): 48.51 ± 0.012 h | AUC(0-t) ([1]; male, Wistar, lung, inhaled or intranasal, 150 ug, zero to 24 h, single inhaled capsule 150 µg, mean ± SD): 175.9 ± 1.05 µg·h/mL | onset of lung deposition ([1]; single inhaled capsule 150 µg): 5 min | Elimination rate constant ([1]; single inhaled capsule 150 µg, mean ± SD): 0.014 ± 0.00012 h^− 1 | Short-term stability, % deviation from fresh sample ([2]; LLOQ 0.10 µg mL^-1): -11.30±3.50% | Long-term stability, % deviation from fresh sample ([2]; LLOQ): -13.10±5.89% | Auto-sampler stability, % deviation from fresh sample ([2]; LLOQ): -12.05±4.20% | Freeze and thaw stability, % deviation from fresh sample ([2]; LLOQ): -13.26±4.85% | Short-term stability, % deviation from fresh sample ([2]; QCH 70.0 µg mL^-1): -2.89±1.94% | Long-term stability, % deviation from fresh sample ([2]; QCH): -3.28±1.32% | Auto-sampler stability, % deviation from fresh sample ([2]; QCH): -1.71±2.67% | Freeze and thaw stability, % deviation from fresh sample ([2]; QCH): -2.20±2.25% | Short-term stability, % deviation from fresh sample ([2]; QCL 0.30 µg mL^-1): -5.74±2.25% | Long-term stability, % deviation from fresh sample ([2]; QCL): -4.40±3.88% | Auto-sampler stability, % deviation from fresh sample ([2]; QCL): -5.98±2.58% | Freeze and thaw stability, % deviation from fresh sample ([2]; QCL): -4.80±3.26% | Short-term stability, % deviation from fresh sample ([2]; QCM 35.0 µg mL^-1): -4.14±2.61% | Long-term stability, % deviation from fresh sample ([2]; QCM): -3.90±2.22% | Auto-sampler stability, % deviation from fresh sample ([2]; QCM): -4.02±2.34% | Freeze and thaw stability, % deviation from fresh sample ([2]; QCM): -4.30±2.81% | solubility in acetonitrile and chloroform ([3]; tested as porogen): insolubility | solubility in methanol ([3]; washing solvent discussion): high | time to enter the bloodstream after inhalation ([4]; after being inhaled): ≤ 5 min | time to highest blood concentration ([4]; after entering the bloodstream, at very low doses): approximately 15 min | absolute bioavailability ([4]; inhaled): 45% | fraction of systemically available indacaterol due to pulmonary absorption (Flung) ([4]; inhaled): 74% | time to steady state ([4]; once-daily inhalation): 12 days | metabolism by UGT1A1 and CYP3A4 in the lung [5]: did not detect any apparent metabolism | lipophilicity [6]: high | binding affinity for raft micro-domains compared to other β2 agonists ([6]; plasma membrane of airway smooth muscle): two-fold higher
